In patent US20250051324A1, “PARP INHIBITOR, PHARMACEUTICAL COMPOSITION COMPRISING SAME, AND USE THEREOF” (KEYTHERA (SUZHOU) BIO-PHARMACEUTICALS CO., LIMITED, priority 2021, published 2025):
Like-named read-outs stand apart in the source and are kept apart here. One block for each molecule: values may come before it.

Key:
PARP1 [1] = molecular target: T1, PARP1 (Homo sapiens (Human), UniProt P09874); assay: PARP enzyme activity assay (PARP1 chemiluminescent assay kit); assay type: biochemical; conditions: enzyme inhibitory activity, read-out: PARP-1 IC50
T1 sequence (P09874 whole entry): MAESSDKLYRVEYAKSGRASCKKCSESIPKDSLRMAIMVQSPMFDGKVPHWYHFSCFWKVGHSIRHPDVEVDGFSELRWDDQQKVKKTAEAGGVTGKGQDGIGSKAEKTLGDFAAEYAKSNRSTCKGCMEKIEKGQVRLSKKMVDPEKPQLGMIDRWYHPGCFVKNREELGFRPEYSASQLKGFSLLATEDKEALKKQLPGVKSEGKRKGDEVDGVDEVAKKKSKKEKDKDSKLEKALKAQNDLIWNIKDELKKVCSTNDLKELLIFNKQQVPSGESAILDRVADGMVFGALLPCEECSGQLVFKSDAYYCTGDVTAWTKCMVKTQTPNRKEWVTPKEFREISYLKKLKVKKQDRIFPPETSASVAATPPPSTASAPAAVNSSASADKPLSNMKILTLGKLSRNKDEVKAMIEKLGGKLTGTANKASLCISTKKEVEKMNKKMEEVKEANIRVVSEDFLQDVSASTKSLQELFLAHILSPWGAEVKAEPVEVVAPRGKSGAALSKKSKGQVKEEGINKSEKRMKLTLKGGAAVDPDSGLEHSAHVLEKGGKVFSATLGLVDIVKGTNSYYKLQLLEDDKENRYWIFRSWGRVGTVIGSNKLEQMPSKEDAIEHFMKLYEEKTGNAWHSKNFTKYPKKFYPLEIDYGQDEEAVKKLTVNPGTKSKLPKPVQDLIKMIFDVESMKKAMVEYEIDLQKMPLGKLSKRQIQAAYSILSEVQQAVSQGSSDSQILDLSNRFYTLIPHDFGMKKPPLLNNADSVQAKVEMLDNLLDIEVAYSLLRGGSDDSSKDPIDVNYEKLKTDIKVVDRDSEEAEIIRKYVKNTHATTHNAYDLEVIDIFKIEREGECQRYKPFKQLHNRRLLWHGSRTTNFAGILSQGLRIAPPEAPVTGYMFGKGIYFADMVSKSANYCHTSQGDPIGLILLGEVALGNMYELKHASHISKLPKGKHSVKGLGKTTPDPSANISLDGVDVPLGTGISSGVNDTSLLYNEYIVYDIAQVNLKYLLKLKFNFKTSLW
From the text: Experimental Materials: The PARP1 assay kit was purchased from BPS Bioscience, USA, specifically the 384-well chemiluminescent assay kit (Catalog No.: #80551).
Experimental Principle: PARP can catalyze the transfer of ADP-ribose residues from NAD+ to target substrates, thereby modifying proteins through ribosylation. This experiment measures PARP1 enzyme activity by detecting the poly(ADP-ribosylation) of histones by PARP1.
Preparation of Reagents and Test Compounds: The 10× assay buffer included in the kit was diluted to 1× with distilled water. The test compound (stock concentration of 10 mM) was diluted to 10 μM with a DMSO solution and then serially diluted in a 1:3 ratio. The serially diluted compounds were further diluted 10-fold with the 1× assay buffer.
Experimental Method: The procedure was carried out according to the kit's instructions:
1. The 5× histone mixture was diluted to 1× with PBS, and 25 μL was added to each well of a 384-well plate, incubating overnight at 4° C.
2. After incubation, 100 μL of PBST (0.05% Tween 20) was added to each well for washing, repeated three times. Then, 100 μL of blocking solution was added to each well and incubated at room temperature for 90 minutes.
3. After incubation, the wells were washed three times with PBST, and then 1.25 μL of 10× assay buffer, 1.25 μL of 10×PARP assay mixture, 2.5 μL of activation DNA (5×), and 7.5 μL of distilled water were added to each well.
4. […] The positive control group and the negative control group were added with 1× assay buffer containing the same concentration of DMSO.
5. Next, 10 μL of 2.5 ng/μL PARP1 enzyme was added to the test compound and positive control groups, while 10 μL of 1× assay buffer was added to the negative control group, and the mixture was incubated at room temperature for 60 minutes.
6. Streptavidin-HRP was diluted 1:50 with the blocking solution. After incubation, the plate was washed three times with PBST, and 25 μL of the diluted streptavidin-HRP solution was added to each well, incubating at room temperature for 30 minutes.
7. After incubation, the plate was washed three times with PBST, and 50 μL of the mixed substrate A and substrate B in equal volumes was added. The luminescence signal was immediately read on a Synergy HTX multi-mode reader.
(§1) 8. Data analysis was performed using GraphPad Prism 8.0 software. The inhibition rate %=100*(average luminescence signal of the positive control group−luminescence signal of the compound)/(average luminescence signal of the positive control group−average luminescence signal of the negative control group). The IC50 value was obtained by plotting the logarithm of the compound concentration against the percentage inhibition rate.

[2] = system: UWB1.289 ovarian cancer cells; assay: Cell proliferation assay, UWB1.289; assay type: cell-based; conditions: UWB1289, 168 h, read-out: UWB1.289 Cell IC50
Protocol: (§2) Experimental Materials: MDA-MB-436 or UWB1.289 cell lines were purchased from Cobioer Biosciences Co. Ltd. (Nanjing, China). The STR identification results were a complete match, and mycoplasma testing was negative. MDA-MB-436 cells were cultured in DMEM complete medium containing 10% fetal bovine serum, 1% penicillin-streptomycin, 1% insulin, and 16 μg/mL glutathione; UWB1.289 cells were cultured in RMPI1640 complete medium containing 10% fetal bovine serum and 1% penicillin-streptomycin.
(§3) 1. MDA-MB-436 or UWB1.289 cells were cultured in the aforementioned medium (culture conditions: 37° C., 5.0% CO2 in air) until they reached the logarithmic growth phase. The cells were then digested with trypsin containing 0.25% EDTA, centrifuged at 1000 rpm, and the supernatant was discarded. Cell culture medium was added, and the cell suspension was adjusted to 2×10^4/mL after counting. 135 μL of the cell suspension per well was taken and cultured in a 96-well cell culture plate for 16 hours (culture conditions: 37° C., 5.0% CO2 in air).
(§4) 2. The test compounds, stored at a concentration of 10 mM, were diluted 2.5 times with DMSO and then serially diluted in a 1:3 gradient (9 gradients). The gradient-diluted samples were further diluted 40 times with serum-free medium, and 15 μL of each was added to the 96-well cell culture plate. The positive control group received serum-free medium containing the same concentration of DMSO, and the negative control group received medium without cells. The cells were then cultured for an additional 7 days.
(§5) 3. After the culture period, the cell culture plate was placed at room temperature for 30 minutes. Then, 100 μL of CellCounting-Lite 2.0 reagent (Vazyme, #DD1101) was added to each well, mixed thoroughly, and incubated in the dark at room temperature for 10 minutes. The luminescence signal was read using a Synergy HTX multi-mode reader.
as §1, with “4. Data” for “8. Data”, “rate (%) was calculated as 100*(average” for “rate %=100*(average”

[3] = Evaluation of pharmacokinetics in mice; conditions: male, ICR (CD1), mouse, plasma, po, 10 mg/kg
[4] = system: MDA-MB-436 breast cancer cells; assay: Cell proliferation assay, MDA-MB-436; assay type: cell-based; conditions: Homo sapiens, MDA-MB-436, 168 h, read-out: MDA-MB-436 Cell IC50
Protocol: as §2, §3, §4, §5
as §1, with “4. Data” for “8. Data”, “rate (%) was calculated as 100*(average” for “rate %=100*(average”

[5] = Liver microsome metabolism assay; conditions: CD1, mouse, liver microsomes
Protocol: Experimental Materials: Mixed CD1 mouse liver microsomal enzyme protein was purchased from Xenotech (#M1000), and NADPH was purchased from Abmole (#M9076).
1. To the liver microsomal enzyme reaction system, 210 μL of phosphate buffer was added, followed by 12.5 μL of liver microsomal enzyme at a concentration of 20 mg/mL. Then, 25 μL of NADPH at a concentration of 10 mM was added to the system, mixed well, and incubated in a 37° C. water bath with shaking for 10 minutes.
2. The test compound, stored at a concentration of 10 mM, was diluted to 100 μM with DMSO. Then, 2.5 μL of the diluted test compound was added to the reaction system, mixed well, and incubated in a 37° C. water bath with shaking.
3. At 0.5, 5, 10, 20, 30, and 60 minutes, 25 μL of the enzyme reaction mixture was taken and added to 125 μL of cold acetonitrile containing dexamethasone as an internal standard. The mixture was centrifuged at 4000 g for 20 minutes, and the supernatant was mixed with an equal volume of distilled water. The mixed sample was then subjected to quantitative analysis by liquid chromatography-mass spectrometry.
4. Calculation of in vitro drug metabolism half-life and drug clearance rate:
t1/2=−0.693/k. (k: the slope of the linear regression of the natural logarithm of the percentage of drug remaining versus incubation time).

PARP1 [6] = molecular target: T1, PARP1; assay: PARP1 trapping assay; assay type: biochemical; conditions: read-out: Inhibitory Effect on PARP1 Trapping IC50
Protocol: [table] […] 1. A 4× enzyme reaction mixture, comprising PARP1, PARP2, and GST-Tb antibody, was prepared with the buffer and 4 μL of the enzyme reaction mixture was added to a 384-well plate. 2. A 4×PARP1 and PARP2 probe reaction mixture was prepared with the buffer and 4 μL of the probe reaction mixture was added to the 384-well plate. 3. A series of gradient-diluted compounds were prepared and 4 μL of the diluted compounds were added to the 384-well plate, and incubated at room temperature for 45 minutes. 4. After incubation, 4 μL of 4×NAD reaction mixture was added to the 384-well plate and incubated at room temperature for 10 minutes. 5. After incubation, the plate was read using a plate reader. 6. Data Analysis: The percentage inhibition rate was calculated as follows: Inhibition Rate (%)=(Reading of Compound Group−Reading of Blank Group)/(Reading of Vehicle Control Group−Reading of Blank Group).

Compound: CNC(=O)c1ccc(N2CCN(Cc3cnc4c(C)c(C(F)(F)F)c(=O)[nH]c4c3)C(COC)C2)cn1 (stereo not shown) [Compound 8, 5-(3-(methoxymethyl)-4-((8-methyl-6-oxo-7-(trifluoromethyl)-5,6-dihydro-1,5-naphthyridin-3-yl)methyl)piperazin-1-yl)-N-methylpicolinamide]
IC50 (PARP1 [1]): 2.55 nM
IC50 ([2]; proliferation, 7 days): 12.6 nM

Compound: CNC(=O)c1ccc(N2CCN(Cc3cnc4c(C)c(C(F)(F)F)c(=O)[nH]c4c3)CC2C)cn1 (stereo not shown) [Compound 10, N-methyl-5-(2-methyl-4-((8-methyl-6-oxo-7-(trifluoromethyl)-5,6-dihydro-1,5-naphthyridin-3-yl)methyl)piperazin-1-yl)picolinamide]
IC50 (PARP1 [1]): 2.79 nM
IC50 ([2]; proliferation, 7 days): 15 nM

Compound: CNC(=O)c1ccc(N2CCN(Cc3cnc4c(C)c(C(F)(F)F)c(=O)[nH]c4c3)C(C)C2)cn1 (stereo not shown) [Compound 11, N-methyl-5-(3-methyl-4-((8-methyl-6-oxo-7-(trifluoromethyl)-5,6-dihydro-1,5-naphthyridin-3-yl)methyl)piperazin-1-yl)picolinamide]
IC50 (PARP1 [1]): 0.96 nM
IC50 ([2]; proliferation, 7 days): 28.5 nM
AUC(0-inf) [3]: 1500 µg·h/mL
Cmax [3]: 55900 ng/mL
half-life [3]: 18.9 h

Compound: CNS(=O)(=O)c1ccc(N2CCN(Cc3cnc4c(C)c(C(F)(F)F)c(=O)[nH]c4c3)CC2)cc1 [Compound 13, N-methyl-4-(4-((8-methyl-6-oxo-7-(trifluoromethyl)-5,6-dihydro-1,5-naphthyridin-3-yl)methyl)piperazin-1-yl)benzenesulfonamide]
IC50 (PARP1 [1]): 7.37 nM

Compound: Cc1c(C(F)(F)F)c(=O)[nH]c2cc(CN3CCN(c4ccc5[nH]c(=O)[nH]c5n4)CC3)cnc12 [Compound 18, 4-methyl-7-((4-(2-oxo-2,3-dihydro-1H-imidazo[4,5-b]pyridin-5-yl)piperazin-1-yl)methyl)-3-(trifluoromethyl)-1,5-naphthyridin-2(1H)-one]
IC50 (PARP1 [1]): 15.9 nM

Compound: Cc1c(C(F)(F)F)c(=O)[nH]c2cc(CN3CCN(c4ncc(C(F)(F)F)cn4)CC3)cnc12 [Compound 19, 4-methyl-3-(trifluoromethyl)-7-((4-(5-(trifluoromethyl)pyrimidin-2-yl)piperazin-1-yl)methyl)-1,5-naphthyridin-2(1H)-one]
IC50 (PARP1 [1]): 5.48 nM

Compound: CNC(=O)c1ccc(N2CCN(Cc3cnc4c(C)c(C(F)(F)F)c(=O)[nH]c4c3)CC2)c(F)n1 [Compound 93, 6-fluoro-N-methyl-5-(4-((8-methyl-6-oxo-7-(trifluoromethyl)-5,6-dihydro-1,5-naphthyridin-3-yl)methyl)piperazin-1-yl)picolinamide]
IC50 (PARP1 [6]): 1.32 nM
IC50 [2]: 2.67 nM
IC50 [4]: 0.83 nM
AUC(0-inf) [3]: 796 µg·h/mL
Cmax [3]: 31900 ng/mL
half-life [3]: 18.4 h

Compound: CNC(=O)c1ccc(N2CCN(Cc3cnc4c(C)c(C(F)F)c(=O)[nH]c4c3)CC2)cn1 [Compound 100, 5-(4-((7-(difluoromethyl)-8-methyl-6-oxo-5,6-dihydro-1,5-naphthyridin-3-yl)methyl)piperazin-1-yl)-N-methylpicolinamide]
IC50 (PARP1 [6]): 2.58 nM
IC50 [4]: 2.05 nM

Continued, values first:

IC50 (PARP1 [1]): 1.26 nM
IC50 ([2]; proliferation, 7 days): 26.6 nM
Compound: Cc1c(C(F)(F)F)c(=O)[nH]c2cc(CN3CCN(c4ccc(C#N)cn4)CC3)cnc12 [Compound 20, 6-(4-((8-methyl-6-oxo-7-(trifluoromethyl)-5,6-dihydro-1,5-naphthyridin-3-yl)methyl)piperazin-1-yl)nicotinonitrile]

IC50 ([2]; proliferation, 7 days): 13.6 nM
Compound: CNC(=O)c1ccc(N2CCN(Cc3cnc4c(C)c(C(F)(F)F)c(=O)[nH]c4c3)C[C@@H]2C)cn1 [Compound 53, (S)—N-methyl-5-(2-methyl-4-((8-methyl-6-oxo-7-(trifluoromethyl)-5,6-dihydro-1,5-naphthyridin-3-yl)methyl)piperazin-1-yl)picolinamide]

IC50 ([2]; proliferation, 7 days): 8.13 nM
Compound: CNC(=O)c1ccc(C2CCN(Cc3cnc4c(C)c(C(F)(F)F)c(=O)[nH]c4c3)CC2)cn1 [Compound 71, N-methyl-5-(1-((8-methyl-6-oxo-7-(trifluoromethyl)-5,6-dihydro-1,5-naphthyridin-3-yl)methyl)piperidin-4-yl)picolinamide]

IC50 ([4]; proliferation, 7 days): 8.18 nM
microsomal CLint at 1 µM [5]: 0.6 µL/min/mg
Compound: CNC(=O)c1ccc(N2CCN(Cc3cnc4c(C)c(C(F)(F)F)c(=O)[nH]c4c3)CC2C#N)cn1 (stereo not shown) [Compound 72, 5-(2-cyano-4-((8-methyl-6-oxo-7-(trifluoromethyl)-5,6-dihydro-1,5-naphthyridin-3-yl)methyl)piperazin-1-yl)-N-methylpicolinamide]

microsomal CLint at 1 µM [5]: 0.72 µL/min/mg
Compound: Cc1c(C(F)(F)F)c(=O)[nH]c2cc(CN3CCN(c4cc5c(cn4)C(=O)N(C)C5)CC3)cnc12 [Compound 84, 4-methyl-7-((4-(2-methyl-3-oxo-2,3-dihydro-1H-pyrrolo[3,4-c]pyridin-6-yl)piperazin-1-yl)methyl)-3-(trifluoromethyl)-1,5-naphthyridin-2(1H)-one]

IC50 ([4]; proliferation, 7 days): 16.4 nM
microsomal CLint at 1 µM [5]: 0.86 µL/min/mg
Compound: CNC(=O)c1ccc(N2CCN(Cc3cnc4c(C)c(C#N)c(=O)[nH]c4c3)CC2)cn1 [Compound 85, 5-(4-((7-cyano-8-methyl-6-oxo-5,6-dihydro-1,5-naphthyridin-3-yl)methyl)piperazin-1-yl)-N-methylpicolinamide]

IC50 (PARP1 [6]): 1.53 nM
IC50 ([4]; proliferation, 7 days): 1.69 nM
Compound: Cc1c(C(F)(F)F)c(=O)[nH]c2cc(CN3CCN(c4ccc(C(=O)NC5CC5)nc4)CC3)cnc12 [Compound 99, N-cyclopropyl-5-(4-((8-methyl-6-oxo-7-(trifluoromethyl)-5,6-dihydro-1,5-naphthyridin-3-yl)methyl)piperazin-1-yl)picolinamide]
